In ChEMBL document CHEMBL5038631, “2-(2-Hydroxyethyl)piperazine derivatives as potent human carbonic anhydrase inhibitors: Synthesis, enzyme inhibition, computational studies and antiglaucoma activity” (Eur J Med Chem, 2022):
pKi: −log10 of the molar value.

What follows are compounds tested against Carbonic anhydrase 9 (Homo sapiens, UniProt Q16790) (assay: Inhibition of human CA9 incubated for 15 mins prior to testing by phenol red dye based stopped flow CO2 hydration assay).

| Structure (SMILES) | pKi |
| --- | --- |
| NS(=O)(=O)c1ccc(C(=O)N2CCNC[C@@H]2CCO)cc1 | 7.28 |
| NS(=O)(=O)c1ccc(C(=O)N2CCN(Cc3ccccc3)C[C@@H]2CCO)cc1 | 7.83 |
| CN1CCN(C(=O)c2ccc(S(N)(=O)=O)cc2)[C@@H](CCO)C1 | 7.51 |
| NS(=O)(=O)c1ccc(C(=O)N2CCN(Cc3ccccc3)C(CCO)C2)cc1 (racemic) | 7.54 |
| CN1CCN(C(=O)c2ccc(S(N)(=O)=O)cc2)[C@H](CCO)C1 | 7.60 |
| NS(=O)(=O)c1ccc(C(=O)N2CCN(Cc3ccccc3)[C@H](CCO)C2)cc1 | 7.22 |
| NS(=O)(=O)c1ccc(C(=O)N2CCN(Cc3ccccc3)C[C@H]2CCO)cc1 | 7.45 |

Continued, values first:

| pKi | Structure (SMILES) |
| --- | --- |
| 8.17 | CN1CCN(C(=O)c2ccc(S(N)(=O)=O)cc2)CC1CCO (racemic) |
| 7.27 | NS(=O)(=O)c1ccc(C(=O)N2CCN[C@H](CCO)C2)cc1 |
| 8.17 | CN1CCN(C(=O)c2ccc(S(N)(=O)=O)cc2)C[C@H]1CCO |
| 7.46 | NS(=O)(=O)c1ccc(C(=O)N2CCNC(CCO)C2)cc1 (racemic) |
| 7.22 | NS(=O)(=O)c1ccc(C(=O)N2CCNC[C@H]2CCO)cc1 |
